What was measured:
[1] = tested on: Contig2631_at, Lipase-like Protein (jasmonic acid biosynthesis gene); test: Gene expression profiling (GEP), barley DNA chip, probe set 1.1; type: in vivo; design: fold induction: dose or concentration left out as unconfirmed; settings: for fold induction / fold induction at 150 g/ha: Hordeum vulgare; for fold induction: rates of Table 1 (S7 500); for fold induction at 150 g/ha: 6 h, read-out: Expression value, 1.1 Contig2631_at
Protocol: (§1) Barley plants (cv. Baronesse) were grown in compost-filled pots (diameter: 10 cm) for 10 days in a controlled-environment cabinet under defined light, humidity and temperature conditions (white light, 70% atmospheric humidity, 24° C.). At the time of spray application, the seedlings were approximately 15 cm in size. The test substances selected in this example were molecules which differ markedly in their structure and which have a well documented pronounced safener effect, and other molecules which are known from the literature to have an effect on plant stress and pathogen tolerance (Table 1). The substances were prepared as stock solutions in DMSO (dimethyl sulfoxide) at c=10 mg/ml). This was used for preparing dilutions in water supplemented with 0.2% Agrotin (comprises polyvinyl alcohol, silicones, polysaccharides and pH regulators, manufacturer: Bayer CropScience AG, Monheim, Germany), as wetter, to give the application rates shown in the table. The amount of liquid for the spray application was 800 μl per pot, corresponding to 800 l/ha. For each 800 μl of spray mixture, 16 μl of EC premix: diacetone alcohol=1:6 were additionally added as formulation auxiliaries. The substances listed in Table 1 were applied to the leaves by means of a pneumatic spray pistol. Each substance was sprayed as 2 dosages, and all experiments were carried out as replicates (2 pots per substance). Sprayings with blank formulation without active ingredient were carried out as controls. After 6 hours, the leaves were harvested, frozen in liquid nitrogen and stored at −80° C. until further use. The labeled RNA probes for the DNA chip hybridization were prepared as described in the protocols (Expression Analysis, Technical Manual) from Affymetrix (Affymetrix Inc., 3380 Central Expressway, Santa Clara, Calif., USA). First, total RNA was isolated from in each case 500 mg of the harvested leaves. In each case 10 μg of total RNA was used for the first-strand and second-strand cDNA synthesis. The cDNA was amplified with T7 polymerase and simultaneously labeled with biotin-UTP. In each case, 20 μg of this biotinylated cDNA was employed for the hybridization of the barley genome array (Gene Chip Barleyl, order No.: 511012) from Affymetrix. This DNA microarray comprises DNA sequences of 22 840 genes which are composed of a total of 400 000 EST sequences. Thereafter, the DNA microarrays were washed in the Affymetrix Fluidics Station, stained with streptavidin/phycoerythrin (Molecular Probes, P/N S-866) and scanned with the matching Agilent Laser Scanner (Agilent Gene Array Scanner). The fluorescent data obtained were analyzed with the software Microarray Suite 5 from Affymetrix. After the quality had been checked, all DNA chip analyses were stored in a database. To determine the relative expression values for genes (induction factors, repression factors), test and control chips were compared with each other, and the scoring function set by the Affymetrix software was used as the basis. The 2 biological replications of one experiment were compared in each case with 2 control chips (blank formulation), and the 4 expression values obtained for each gene were used for calculating the median. These medians are shown in the results tables as induction factors. Similarity comparisons of expression profiles from different experiments and cluster analyses were carried out using the software GeneMaths 1.5 from Applied Maths (Applied Maths, Keistraat 120, 9830 Sint-Martens-Latem, Belgium).
(§2) Gene groups from specific metabolic pathways and signal transduction chains were put together by key word search in the annotations, of the genes, which were also provided by Affymetrix, and by Blast analyses (homology comparisons) of the DNA target sequences, i.e. of the positive sequence (identified on the basis of a modified expression profile) identified on the DNA chip, using gene sequences from other organisms, preferably plant organisms, with characterized functions. […]

[2] = tested on: Contig5023_at, Class III chitinase; test: GEP, barley DNA chip, probe set 5.3; type: in vivo; design: fold induction: dose or concentration left out as unconfirmed; settings: for fold induction / fold induction at 150 g/ha: Hordeum vulgare, topical, read-out: Expression value, 5.3 Contig5023_at; for fold induction: rates of Table 1 (S7 500); for fold induction at 150 g/ha: 6 h
Protocol: as §1, §2

[3] = tested on: Contig15_a_at, GDSL-motif lipase/hydrolase-like protein; test: GEP, barley DNA chip, probe set 1.9; type: in vivo; design: fold induction: dose or concentration left out as unconfirmed; settings: for fold induction / fold induction at 150 g/ha: Hordeum vulgare, topical, read-out: Expression value, 1.9 Contig15_a_at; for fold induction: rates of Table 1 (S7 500); for fold induction at 150 g/ha: 6 h
Protocol: as §1, §2

[4] = tested on: Contig1736_at, Lipoxygenase 1 (EC 1.13.11.12); test: GEP, barley DNA chip, probe set 1.10; type: in vivo; design: fold induction: dose or concentration left out as unconfirmed; settings: for fold induction / fold induction at 150 g/ha: Hordeum vulgare, read-out: Expression value, 1.10 Contig1736_at; for fold induction: rates of Table 1 (S7 500); for fold induction at 150 g/ha: 6 h
Protocol: as §1, §2

[5] = tested on: Contig34_s_at, Putative proteinase inhibitor; test: GEP, barley DNA chip, probe set 2.2; type: in vivo; design: fold induction: dose or concentration left out as unconfirmed; settings: for fold induction / fold induction at 150 g/ha: Hordeum vulgare, topical, read-out: Expression value, 2.2 Contig34_s_at; for fold induction: rates of Table 1 (S7 500); for fold induction at 150 g/ha: 6 h
Protocol: as §1, §2

[6] = tested on: Contig5607_s_at, Pathogen-related protein (PirT06168); test: GEP, barley DNA chip, probe set 4.3; type: in vivo; design: fold induction: dose or concentration left out as unconfirmed; settings: for fold induction / fold induction at 150 g/ha: Hordeum vulgare, topical, read-out: Expression value, 4.3 Contig5607_s_at; for fold induction: rates of Table 1 (S7 500); for fold induction at 150 g/ha: 6 h
Protocol: as §1, §2

Oxophytodienoate (OPDA) = Oxophytodienoate (OPDA) concentration in leaves of treated plants, GC-MS/MS; type: in vivo, barley
Protocol: Barley plants (cv. Baronesse) were grown under the conditions described in Example 1 and treated by spray application with safener isoxadifen-ethyl (S 3). The application rates were chosen as follows:
(1) 30 [g a.i./ha]; (2) 150 [g a.i./ha]; (3) blank formulation (no active ingredient)
[…] All samples were designed in each case as replications of 3 pots.
The octadecanoates and jasmonates were processed from the leaves following a procedure described in the literature (Müller A, Düchting P and Weiler E W (2002)), A multiplex GC-MS/MS technique for the sensitive and quantitative single-run analysis of acidic phytohormones and related compounds, and its application to Arabidopsis thaliana. Planta, 216, 44-56).
300 mg of plant material were extracted for each measuring point.
50 pmol [^13C]2-JA and 100 pmol [17,17,17,18,18-^2H]-cis-OPDA were applied as internal standards. The extracts were purified via aminopropyl anion-exchange chromatography in miniature solid-phase exchanger columns which had been prepared in-house.
The results are shown in Tables 3a to 3d, the values shown being in each case means of the 3 applications.

[7] = barley leaves 6 h after spray application, median induction factor vs control
[8] = barley leaves 6 h after spray application, rates of Table 1 (150 g a.i./ha, S7 500), median induction factor vs control

Which results are given for `NC(=O)c1ccc(C(F)(F)F)nc1O` [S6]?
fold induction [1, 7]: 1; fold induction [2, 7]: 1; fold induction [3, 7]: 1; fold induction [4, 7]: 1; fold induction [5, 7]: 1; fold induction [6, 7]: 9.99

How did the fold induction [1, 7] turn out when `CCOC(=O)C(Oc1ccc(Cl)c2cccnc12)C(=O)OCC` [S5] was run?
Its fold induction is 1.

What about the fold induction [2, 7] of the same compound?
The fold induction was 2.73.

What about the fold induction [3, 7] of the same compound?
The fold induction was 0.46.

And the fold induction [4, 7]?
The fold induction was 1.

And the fold induction [5, 7]?
Its fold induction is 1.

What about the fold induction [6, 7] of the same compound?
Its fold induction is 8.75.

What does the source list for `CCCCCC(C)OC(=O)COc1ccc(Cl)c2cccnc12` (stereo not drawn) [S4, Cloquintocet-mexyl]?
fold induction [1, 7]: 1; fold induction [2, 7]: 1; fold induction [3, 7]: 1; fold induction [4, 7]: 1; fold induction [5, 7]: 1; fold induction [6, 7]: 18.4

How did the fold induction [1, 7] turn out when `COC(=O)C1=NN(c2ccc(Cl)cc2Cl)C(C)(C(=O)OC)C1` (stereo not drawn) [S1, Mefenpyr-dimethyl] was run?
The fold induction was 1.

What about the fold induction [2, 7] of the same compound?
Its fold induction is 9.51.

And the fold induction [3, 7]?
The fold induction was 0.35.

And the fold induction [4, 7]?
The fold induction was 1.

And the fold induction [5, 7]?
The fold induction was 1.

And the fold induction [6, 7]?
Its fold induction is 18.6.

How did the “Expression value, 1.1 Contig2631_at” value [1, 8] turn out when `O=C(NO)c1ccccc1O` [S7, Salicyl hydroxamate] was run?
Its value is 1.00 x times.

And the “Expression value, 5.3 Contig5023_at” value [2, 8]?
The value was 1.00 x times.

And the “Expression value, 1.9 Contig15_a_at” value [3, 8]?
Its value is 1.00 x times.

What about the “Expression value, 1.10 Contig1736_at” value [4, 8] of the same compound?
The value was 1.00 x times.

What about the “Expression value, 2.2 Contig34_s_at” value [5, 8] of the same compound?
Its value is 4.50 x times.

And the “Expression value, 4.3 Contig5607_s_at” value [6, 8]?
Its value is 1.00 x times.

`O=C(O)C1=NN(c2ccc(Cl)cc2Cl)C(c2ccc(F)cc2)C1` (stereo not drawn) [S2] was tested. Which fold induction [1, 7] did it give?
The fold induction was 1.

And the fold induction [2, 7]?
Its fold induction is 3.18.

What about the fold induction [3, 7] of the same compound?
Its fold induction is 1.

What about the fold induction [4, 7] of the same compound?
Its fold induction is 1.

And the fold induction [5, 7]?
Its fold induction is 1.

What about the fold induction [6, 7] of the same compound?
Its fold induction is 15.6.

`CSC(=O)c1cccc2nnsc12` [S8, Acibenzolar-S-methyl] was tested. Which fold induction [1, 7] did it give?
The fold induction was 1.

And the fold induction [2, 7]?
Its fold induction is 1.

What about the fold induction [3, 7] of the same compound?
Its fold induction is 1.

What about the fold induction [4, 7] of the same compound?
The fold induction was 1.

What about the fold induction [5, 7] of the same compound?
Its fold induction is 3.68.

What about the fold induction [6, 7] of the same compound?
Its fold induction is 1.

What does the source list for `O=C(O)c1cc(Cl)nc(Cl)c1` [S9]?
fold induction at 150 g/ha [1]: 1; fold induction at 150 g/ha [2]: 4.56; fold induction at 150 g/ha [3]: 1; fold induction at 150 g/ha [4]: 1; fold induction at 150 g/ha [5]: 1; fold induction at 150 g/ha [6]: 1

For `O=C(O)c1cc(Cl)cc(Cl)c1O` [S10], which fold induction [1, 7] is on record?
The fold induction was 1.

What about the fold induction [2, 7] of the same compound?
Its fold induction is 1.

What about the fold induction [3, 7] of the same compound?
Its fold induction is 1.

What about the fold induction [4, 7] of the same compound?
The fold induction was 1.

What about the fold induction [5, 7] of the same compound?
The fold induction was 2.08.

What about the fold induction [6, 7] of the same compound?
The fold induction was 1.

`CCOC(=O)C1=NOC(c2ccccc2)(c2ccccc2)C1` [S3, Isoxadifen-ethyl] was tested. Which fold induction at 150 g/ha [1] did it give?
Its fold induction at 150 g/ha is 97.7.

What about the fold induction at 150 g/ha [2] of the same compound?
The fold induction at 150 g/ha was 1.

And the fold induction at 150 g/ha [3]?
The fold induction at 150 g/ha was 2.97.

And the fold induction at 150 g/ha [4]?
The fold induction at 150 g/ha was 2.91.

What about the fold induction at 150 g/ha [5] of the same compound?
Its fold induction at 150 g/ha is 1.

And the fold induction at 150 g/ha [6]?
Its fold induction at 150 g/ha is 13.4.

What about the “Oxophytodienoate (OPDA) concentration” value (Oxophytodienoate (OPDA); 30 g a.i/ha, 0 hours) of the same compound?
Its value is 2500 pmol/g leaf tissue.

And the “Oxophytodienoate (OPDA) concentration” value (Oxophytodienoate (OPDA); 30 g a.i/ha, 1 hour)?
The value was 6500 pmol/g leaf tissue.

What about the “Oxophytodienoate (OPDA) concentration” value (Oxophytodienoate (OPDA); 30 g a.i/ha, 2 hours) of the same compound?
Its value is 3750 pmol/g leaf tissue.

And the “Oxophytodienoate (OPDA) concentration” value (Oxophytodienoate (OPDA); 30 g a.i/ha, 4 hours)?
The value was 7000 pmol/g leaf tissue.

And the “Oxophytodienoate (OPDA) concentration” value (Oxophytodienoate (OPDA); 30 g a.i/ha, 6 hours)?
Its value is 9000 pmol/g leaf tissue.

What about the “Oxophytodienoate (OPDA) concentration” value (Oxophytodienoate (OPDA); 150 g a.i./ha, 0 hours) of the same compound?
The value was 2600 pmol/g leaf tissue.

What about the “Oxophytodienoate (OPDA) concentration” value (Oxophytodienoate (OPDA); 150 g a.i./ha, 1 hour) of the same compound?
The value was 2800 pmol/g leaf tissue.

What about the “Oxophytodienoate (OPDA) concentration” value (Oxophytodienoate (OPDA); 150 g a.i./ha, 2 hours) of the same compound?
Its value is 1800 pmol/g leaf tissue.

And the “Oxophytodienoate (OPDA) concentration” value (Oxophytodienoate (OPDA); 150 g a.i./ha, 4 hours)?
Its value is 2200 pmol/g leaf tissue.

And the “Oxophytodienoate (OPDA) concentration” value (Oxophytodienoate (OPDA); 150 g a.i./ha, 6 hours)?
The value was 5100 pmol/g leaf tissue.

What about the “Oxophytodienoate (OPDA) concentration” value (Oxophytodienoate (OPDA); 150 g a.i./ha, 12 hours) of the same compound?
Its value is 2400 pmol/g leaf tissue.

And the “Oxophytodienoate (OPDA) concentration” value (Oxophytodienoate (OPDA); 150 g a.i./ha, 24 hours)?
Its value is 5100 pmol/g leaf tissue.

And the “Oxophytodienoate (OPDA) concentration” value (Oxophytodienoate (OPDA); 150 g a.i./ha, 48 hours)?
The value was 1900 pmol/g leaf tissue.

And the “Increase in OPDA concentration relative to blank formulation samples” value (Oxophytodienoate (OPDA); maximum over rates and times)?
Its value is at most 5 times.

And the “Oxophytodienoate (OPDA) concentrations, range over the experiment” value (Oxophytodienoate (OPDA); summary of Tables 3a, 3b, all rates and times)?
Its value is 1800-9000 pmol/g leaf tissue.
